Source: patent publication US9850283B2, “Macrocyclic inhibitors of the PD-1/PD-L1 and CD80(B7-1)/PD-L1 protein/protein interactions” (BRISTOL-MYERS SQUIBB COMPANY, priority 2013, dated 2017)
Where two headings read alike, the source gives them in different places. Starred links: 1 amine or outer side, 2 acyl side, 3 side chain; linkers in the order of their positions; H or OH if unused. Positions of bridges follow the written chain, without caps; N, C: chain ends. Non-standard residues stand in square brackets, D forms with d. Residues, ends and D or L forms follow the SMILES beside them. Tyr(3-Br) = N[C@@H](Cc1ccc(O)c(Br)c1)C(=O)O; X16 = O=C([C@@H]1CC[C@H](O)CN1[*:1])[*:2]; Bta = N[C@@H](Cc1csc2ccccc12)C(=O)O; Hyp = O=C(O)[C@@H]1C[C@@H](O)CN1; NMeNle = CCCC[C@H](NC)C(=O)O; NMeA = CN[C@@H](C)C(=O)O; Dab = NCC[C@H](N)C(=O)O; Dap = NC[C@H](N)C(=O)O; Sar = CNCC(=O)O

Columns and labels:
[1] = target: T1, LK35.2-hPD-L1 cells / PE-labeled PD-1-Ig (Homo sapiens, UniProt Q9NZQ7); assay: LK35.2-hPD-L1 cell binding high-content screening assay; format: cell-based; conditions: cell binding assay, cell line not given
T1 construct: expressed in transfected cells; host or cells: LK35.2 mouse B cell line
How it was run: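 Compound effect on PD-1/PD-L1 binding is measured by imaging cell-associated phycoerythrin signal. Human PD-1-Ig (PE on Ig tag, 1 nM final) is applied with compound to a murine B cell line overexpressing human PD-L1 for 1 h at 37 °C in serum-containing RPMI.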

Human PD-L1/PD-1 = target: T2, Human PD-L1/PD-1 (Homo sapiens, UniProt Q9NZQ7); assay: HTRF PD-1-Ig/PD-L1-His binding assay (human PD-L1)
T2 construct: made in house; host or cells: HEK293T
How it was run: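 Soluble Fc-fused PD-1 and His-tagged PD-L1 (truncated before the transmembrane region) were combined in dPBS with 0.1% (w/v) BSA and 0.05% (v/v) Tween-20. Binding was read by HTRF using europium cryptate anti-Ig antibody (1 nM final) and APC anti-His antibody (20 nM final).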

[2] = cluster symbol, read-out: CBA IC50 cluster
[3] = cluster symbol, read-out: HTRF IC50 cluster

T2 sequence (Q9NZQ7 with tags, fused parts or gaps): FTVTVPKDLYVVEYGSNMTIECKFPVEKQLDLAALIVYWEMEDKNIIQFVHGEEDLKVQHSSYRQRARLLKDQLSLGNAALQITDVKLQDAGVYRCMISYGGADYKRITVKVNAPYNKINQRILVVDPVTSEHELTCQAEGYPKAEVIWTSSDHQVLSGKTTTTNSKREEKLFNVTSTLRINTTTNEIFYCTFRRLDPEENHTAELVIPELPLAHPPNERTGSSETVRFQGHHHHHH
T1 sequence (Q9NZQ7 19-290): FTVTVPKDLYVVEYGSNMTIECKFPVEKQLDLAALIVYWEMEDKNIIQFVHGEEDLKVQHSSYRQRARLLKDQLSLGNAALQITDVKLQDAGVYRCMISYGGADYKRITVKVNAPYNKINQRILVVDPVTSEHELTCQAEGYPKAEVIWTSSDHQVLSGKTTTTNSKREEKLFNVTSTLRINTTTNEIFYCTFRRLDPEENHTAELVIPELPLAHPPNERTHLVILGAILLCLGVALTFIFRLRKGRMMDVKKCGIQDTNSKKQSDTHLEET

IC50 [1, 2] | IC50 (Human PD-L1/PD-1; [3]) | IC50 ([1]; value given instead of cluster, read-out: CBA IC50 value) | IC50 (Human PD-L1/PD-1; value given instead of cluster, read-out: HTRF IC50 value) | SMILES
0.158 to 4.71 nM | 0.385 to 6.74 nM |  |  | CCCC[C@H]1C(=O)N(C)[C@@H](CCCC)C(=O)N[C@@H](CC(C)C)C(=O)N[C@H](C(=O)NCC(N)=O)CSCC(=O)N[C@@H](Cc2ccc(O)cc2)C(=O)N(C)[C@@H](C)C(=O)N[C@@H](CC(=O)O)C(=O)N2CCC[C@H]2C(=O)N[C@@H](Cc2cnc[nH]2)C(=O)N[C@@H](CC(C)C)C(=O)N2C[C@H](O)C[C@H]2C(=O)N[C@@H](Cc2c[nH]c3ccccc23)C(=O)N[C@@H](CCN)C(=O)N[C@@H](Cc2c[nH]c3ccccc23)C(=O)N1C [Example 6027] ({CH2CO}-Y[NMeA]DPHL[Hyp]W[Dab]W[NMeNle][NMeNle]LCG-NH2; thioether N-14)
0.158 to 4.71 nM | 6.76 to 30.3 nM |  |  | CCCC[C@H]1C(=O)N(C)[C@@H](CCCC)C(=O)N[C@@H](CCCNC(=N)N)C(=O)N[C@H](C(=O)NCC(N)=O)CSCC(=O)N[C@@H](Cc2ccc(O)cc2)C(=O)N(C)[C@@H](C)C(=O)N[C@@H](CC(N)=O)C(=O)N2CCC[C@H]2C(=O)N[C@@H](CN)C(=O)N[C@@H](CC(N)=O)C(=O)N2C[C@H](O)C[C@H]2C(=O)N[C@@H](Cc2c[nH]c3ccccc23)C(=O)N[C@@H](CO)C(=O)N[C@@H](Cc2csc3ccccc23)C(=O)N1C [Example 6028] ({CH2CO}-Y[NMeA]NP[Dap]N[Hyp]WS[Bta][NMeNle][NMeNle]RCG-NH2; thioether N-14)
4.78 to 72.9 nM | 0.385 to 6.74 nM |  |  | CCCC[C@H]1C(=O)N(C)[C@@H](COc2cccc(C)c2)C(=O)N[C@@H](CC(C)C)C(=O)N[C@H](C(=O)NCC(N)=O)CSCC(=O)N[C@@H](Cc2ccc(O)cc2)C(=O)N(C)[C@@H](C)C(=O)N[C@@H](CC(N)=O)C(=O)N2CCC[C@H]2C(=O)N[C@@H](CN)C(=O)N[C@@H](CC(C)C)C(=O)N2C[C@H](O)C[C@H]2C(=O)N[C@@H](Cc2c[nH]c3ccccc23)C(=O)N[C@@H](CCN)C(=O)N[C@@H](Cc2c[nH]c3ccccc23)C(=O)N1C [Example 6029]
4.78 to 72.9 nM | 0.385 to 6.74 nM |  |  | CCCC[C@H]1C(=O)N(C)[C@@H](COc2cccc(C)c2)C(=O)N[C@@H](CCN)C(=O)N[C@H](C(=O)NCC(N)=O)CSCC(=O)N[C@@H](Cc2ccc(O)cc2)C(=O)N(C)[C@@H](C)C(=O)N[C@@H](CC(N)=O)C(=O)N2CCC[C@H]2C(=O)N[C@@H](CN)C(=O)N[C@@H](CCC(=O)O)C(=O)N2C[C@H](O)C[C@H]2C(=O)N[C@@H](Cc2c[nH]c3ccccc23)C(=O)N[C@@H](CO)C(=O)N[C@@H](Cc2c[nH]c3ccccc23)C(=O)N1C [Example 6030]
4.78 to 72.9 nM | 0.385 to 6.74 nM |  |  | CCCC[C@H]1C(=O)N(C)[C@@H](COc2cccc(C)c2)C(=O)N[C@@H](CCN)C(=O)N[C@H](C(=O)NCC(N)=O)CSCC(=O)N[C@@H](Cc2ccc(O)cc2)C(=O)N(C)[C@@H](C)C(=O)N[C@@H](CC(=O)O)C(=O)N2CCC[C@H]2C(=O)N[C@@H](CN)C(=O)N[C@@H](CCC(=O)O)C(=O)N2C[C@H](O)C[C@H]2C(=O)N[C@@H](Cc2c[nH]c3ccccc23)C(=O)N[C@@H](CO)C(=O)N[C@@H](Cc2c[nH]c3ccccc23)C(=O)N1C [Example 6031]
0.158 to 4.71 nM | 0.385 to 6.74 nM |  |  | CCCC[C@H]1C(=O)N(C)[C@@H](CCCC)C(=O)N[C@@H](CCCNC(=N)N)C(=O)N[C@H](C(=O)NCC(N)=O)CSCC(=O)N[C@@H](Cc2ccc(O)cc2)C(=O)N(C)[C@@H](C)C(=O)N[C@@H](CC(N)=O)C(=O)N2CCC[C@H]2C(=O)N[C@@H](CN)C(=O)N[C@@H](CC(C)C)C(=O)N2C[C@H](O)C[C@H]2C(=O)N[C@@H](Cc2c[nH]c3ccccc23)C(=O)N[C@@H](C(C)C)C(=O)N[C@@H](Cc2c[nH]c3ccccc23)C(=O)N1C [Example 6032] ({CH2CO}-Y[NMeA]NP[Dap]L[Hyp]WVW[NMeNle][NMeNle]RCG-NH2; thioether N-14)
0.158 to 4.71 nM | 0.385 to 6.74 nM |  |  | CCCC[C@H]1C(=O)N(C)[C@@H](CCCC)C(=O)N[C@@H](CCCNC(=N)N)C(=O)N[C@H](C(=O)NCC(N)=O)CSCC(=O)N[C@@H](Cc2ccc(O)cc2)C(=O)N(C)[C@@H](C)C(=O)N[C@@H](CC(N)=O)C(=O)N2CCC[C@H]2C(=O)N[C@@H](CN)C(=O)N[C@@H](CC(C)C)C(=O)N2C[C@H](O)C[C@H]2C(=O)N[C@@H](Cc2c[nH]c3ccccc23)C(=O)N[C@@H](CC(N)=O)C(=O)N[C@@H](Cc2c[nH]c3ccccc23)C(=O)N1C [Example 6033] ({CH2CO}-Y[NMeA]NP[Dap]L[Hyp]WNW[NMeNle][NMeNle]RCG-NH2; thioether N-14)
0.158 to 4.71 nM | 0.385 to 6.74 nM |  |  | CCCC[C@H]1C(=O)N(C)[C@@H](CCCC)C(=O)N[C@@H](CCCNC(=N)N)C(=O)N[C@H](C(=O)NCC(N)=O)CSCC(=O)N[C@@H](Cc2ccc(O)cc2)C(=O)N(C)[C@@H](C)C(=O)N[C@@H](CC(N)=O)C(=O)N2CCC[C@H]2C(=O)N[C@@H](CN)C(=O)N[C@@H](CC(C)C)C(=O)N2C[C@H](O)C[C@H]2C(=O)N[C@@H](Cc2c[nH]c3ccccc23)C(=O)N[C@@H](CC(C)C)C(=O)N[C@@H](Cc2c[nH]c3ccccc23)C(=O)N1C [Example 6034] ({CH2CO}-Y[NMeA]NP[Dap]L[Hyp]WLW[NMeNle][NMeNle]RCG-NH2; thioether N-14)
0.158 to 4.71 nM | 0.385 to 6.74 nM |  |  | CCCC[C@H]1C(=O)N(C)[C@@H](CCCC)C(=O)N[C@@H](CCN)C(=O)N[C@H](C(=O)NCC(N)=O)CSCC(=O)N[C@@H](Cc2ccc(O)c(Br)c2)C(=O)N(C)[C@@H](C)C(=O)N[C@@H](CC(N)=O)C(=O)N2CCC[C@H]2C(=O)N[C@@H](Cc2cnc[nH]2)C(=O)N[C@@H](CC(C)C)C(=O)N2C[C@H](O)C[C@H]2C(=O)N[C@@H](Cc2c[nH]c3ccccc23)C(=O)N[C@@H](CCN)C(=O)N[C@@H](Cc2c[nH]c3ccccc23)C(=O)N1C [Example 6036] ({CH2CO}-[Tyr(3-Br)][NMeA]NPHL[Hyp]W[Dab]W[NMeNle][NMeNle][Dab]CG-NH2; thioether N-14)
0.158 to 4.71 nM | 0.385 to 6.74 nM |  |  | CCCC[C@H]1C(=O)N(C)[C@@H](CCCC)C(=O)N[C@@H](CC(C)C)C(=O)N[C@H](C(=O)NCC(N)=O)CSCC(=O)N[C@@H](Cc2ccc(O)cc2)C(=O)N(C)[C@@H](C)C(=O)N[C@@H](CC(N)=O)C(=O)N2CCC[C@H]2C(=O)N[C@@H](CN)C(=O)N[C@@H](CC(C)C)C(=O)N2CCC[C@H]2C(=O)N[C@@H](Cc2c[nH]c3ccccc23)C(=O)N[C@@H](CCN)C(=O)N[C@@H](Cc2c[nH]c3ccccc23)C(=O)N1C [Example 6040] ({CH2CO}-Y[NMeA]NP[Dap]LPW[Dab]W[NMeNle][NMeNle]LCG-NH2; thioether N-14)
4.78 to 72.9 nM | 6.76 to 30.3 nM |  |  | CCCC[C@H]1C(=O)N[C@@H](Cc2c[nH]c3ccccc23)C(=O)N[C@@H](CCN)C(=O)N[C@@H](Cc2c[nH]c3ccccc23)C(=O)N(C)[C@@H](CCCC)C(=O)N(C)[C@@H](CCCC)C(=O)N[C@@H](CC(C)C)C(=O)N[C@H](C(=O)NCC(N)=O)CSCC(=O)N[C@@H](Cc2ccc(O)cc2)C(=O)N(C)[C@@H](C)C(=O)N[C@@H](CC(N)=O)C(=O)N2CCC[C@H]2C(=O)N[C@@H](CN)C(=O)N[C@@H](CC(C)C)C(=O)N1C [Example 6041] ({CH2CO}-Y[NMeA]NP[Dap]L[NMeNle]W[Dab]W[NMeNle][NMeNle]LCG-NH2; thioether N-14)
4.78 to 72.9 nM | 0.385 to 6.74 nM |  |  | CCCC[C@H]1C(=O)N(C)[C@@H](CCCC)C(=O)N[C@@H](CC(C)C)C(=O)N[C@H](C(=O)NCC(N)=O)CSCC(=O)N[C@@H](Cc2ccc(O)cc2)C(=O)N(C)[C@@H](C)C(=O)N[C@@H](CC(N)=O)C(=O)N2CCC[C@H]2C(=O)N[C@@H](CN)C(=O)N[C@@H](CC(C)C)C(=O)N2C[C@@H](O)CC[C@H]2C(=O)N[C@@H](Cc2c[nH]c3ccccc23)C(=O)N[C@@H](CCN)C(=O)N[C@@H](Cc2c[nH]c3ccccc23)C(=O)N1C [Example 6042] ({CH2CO}-Y[NMeA]NP[Dap]L[X16]W[Dab]W[NMeNle][NMeNle]LCG-NH2; thioether N-14)
4.78 to 72.9 nM | 0.385 to 6.74 nM |  |  | CCCC[C@H]1C(=O)N(C)[C@@H](CCCC)C(=O)N[C@@H](CCN)C(=O)N[C@H](C(=O)NCC(N)=O)CSCC(=O)N[C@@H](Cc2ccc(O)c(Br)c2)C(=O)N(C)[C@@H](C)C(=O)N[C@@H](CC(N)=O)C(=O)N2CCC[C@H]2C(=O)N[C@@H](Cc2cnc[nH]2)C(=O)N[C@@H](CC(C)C)C(=O)N(C)CC(=O)N[C@@H](Cc2c[nH]c3ccccc23)C(=O)N[C@@H](CCN)C(=O)N[C@@H](Cc2c[nH]c3ccccc23)C(=O)N1C [Example 6043] ({CH2CO}-[Tyr(3-Br)][NMeA]NPHL[Sar]W[Dab]W[NMeNle][NMeNle][Dab]CG-NH2; thioether N-14)
> 74.3 nM | 6.76 to 30.3 nM |  |  | CCCC[C@H]1C(=O)N2CCC[C@@H]2C(=O)N[C@@H](CCN)C(=O)N[C@H](C(=O)NCC(N)=O)CSCC(=O)N[C@@H](Cc2ccc(O)c(Br)c2)C(=O)N(C)[C@@H](C)C(=O)N[C@@H](CC(N)=O)C(=O)N2CCC[C@H]2C(=O)N[C@@H](Cc2cnc[nH]2)C(=O)N[C@@H](CC(C)C)C(=O)N2C[C@H](O)C[C@H]2C(=O)N[C@@H](Cc2c[nH]c3ccccc23)C(=O)N[C@@H](CCN)C(=O)N[C@@H](Cc2c[nH]c3ccccc23)C(=O)N1C [Example 6044] ({CH2CO}-[Tyr(3-Br)][NMeA]NPHL[Hyp]W[Dab]W[NMeNle][dP][Dab]CG-NH2; thioether N-14)
 |  | 625 nM | 90.1 nM | CCCC[C@H]1C(=O)N2CCC[C@@H]2C(=O)N[C@@H](CCN)C(=O)N[C@H](C(=O)NCC(N)=O)CSCC(=O)N[C@@H](Cc2ccc(O)c(Br)c2)C(=O)N(C)[C@@H](C)C(=O)N[C@@H](CC(N)=O)C(=O)N2CCC[C@H]2C(=O)N[C@@H](Cc2cnc[nH]2)C(=O)N[C@@H](CC(C)C)C(=O)N(C)CC(=O)N[C@@H](Cc2c[nH]c3ccccc23)C(=O)N[C@@H](CCN)C(=O)N[C@@H](Cc2c[nH]c3ccccc23)C(=O)N1C [Example 6045] ({CH2CO}-[Tyr(3-Br)][NMeA]NPHL[Sar]W[Dab]W[NMeNle][dP][Dab]CG-NH2; thioether N-14)
